Laboratory results as given in patent publication US20150328245A1, “Agents for Eliminating Tumour-Initiating Cells” (priority 2012, published 2015).

Assay: In vivo maximum tolerated dose assay for compound I-2
Parameters: species or system BALB/c mice
Procedure: In vivo maximum tolerated dose (MTD) toxicity assay was carried out to evaluate the highest dose of a pharmaceutical treatment that will produce the desired effect without unacceptable toxicity. The purpose of administering MTD is to determine whether long-term exposure to a compound might lead to unacceptable adverse health effects in a subject, when the level of exposure is not sufficient to cause premature mortality due to short-term toxic effects.
An exemplary procedure for the in vivo maximum tolerated dose toxicity assay follows. A statistically appropriate number of FEMALE BALB/c MICE were interperitoneally treated with the compound I-2 at three different dose levels 3 mg/kg, 1 mg/kg, and 0.3 mg/kg. Body weight and clinical sign of all the animals were observed daily during dosing and post dosing period.

COc1cc2c(OC3OCC(OC)C(OC)C3O)c3c(c(-c4ccc5c(c4)OCO5)c2cc1OC)C(=O)OC3 (centres unmarked) [I-2]
toxicity finding of the given dose (0.3 mg/kg q7d×4 i.p.): safe
toxicity finding of the given dose (1 mg/kg q7d×4 i.p.): safe
mortality (3 mg/kg q7d×4 i.p.): more than one mortality
toxicity finding of the given dose (3 mg/kg q7d×4 i.p.): toxic
Mean body weight (G1 3 mg/kg q7dX4, day 1): 2 g
Mean body weight (G1 3 mg/kg q7dX4, day 2): 2 g
Mean body weight (G1 3 mg/kg q7dX4, day 3): 2 g
Mean body weight (G1 3 mg/kg q7dX4, day 4): 2 g
Mean body weight (G1 3 mg/kg q7dX4, day 5): 2 g
Mean body weight (G1 3 mg/kg q7dX4, day 6): 2 g
Mean body weight (G1 3 mg/kg q7dX4, day 7): 2 g
Mean body weight (G1 3 mg/kg q7dX4, day 8): 2 g
Mean body weight (G1 3 mg/kg q7dX4, day 9): 2 g
Mean body weight (G1 3 mg/kg q7dX4, day 10): 2 g
Mean body weight (G1 3 mg/kg q7dX4, day 11): 2 g
Mean body weight (G1 3 mg/kg q7dX4, day 12): 2 g
Mean body weight (G1 3 mg/kg q7dX4, day 13): 2 g
Mean body weight (G1 3 mg/kg q7dX4, day 14): 2 g
Mean body weight (G1 3 mg/kg q7dX4, day 15): 2 g
Mean body weight (G1 3 mg/kg q7dX4, day 16): 2 g
Mean body weight (G1 3 mg/kg q7dX4, day 17): 2 g
Mean body weight (G1 3 mg/kg q7dX4, day 18): 2 g
Mean body weight (G1 3 mg/kg q7dX4, day 19): 2 g
Mean body weight (G1 3 mg/kg q7dX4, day 20): 2 g
Mean body weight (G1 3 mg/kg q7dX4, day 21): 2 g
Mean body weight (G1 3 mg/kg q7dX4, day 22): 2 g
Mean body weight (G1 3 mg/kg q7dX4, day 23): 2 g
Mean body weight (G1 3 mg/kg q7dX4, day 24): 2 g
Mean body weight (G1 3 mg/kg q7dX4, day 25): 2 g
Mean body weight (G1 3 mg/kg q7dX4, day 26): 2 g
Mean body weight (G1 3 mg/kg q7dX4, day 27): 2 g
Mean body weight (G1 3 mg/kg q7dX4, day 28): 2 g
Mean body weight (G1 3 mg/kg q7dX4, day 29): 2 g
Mean body weight (G2 1 mg/kg q7dX4, day 1): 23. g
Mean body weight (G2 1 mg/kg q7dX4, day 2): 23. g
Mean body weight (G2 1 mg/kg q7dX4, day 3): 23. g
Mean body weight (G2 1 mg/kg q7dX4, day 4): 24. g
Mean body weight (G2 1 mg/kg q7dX4, day 5): 24. g
Mean body weight (G2 1 mg/kg q7dX4, day 6): 24. g
Mean body weight (G2 1 mg/kg q7dX4, day 7): 24. g
Mean body weight (G2 1 mg/kg q7dX4, day 8): 24. g
Mean body weight (G2 1 mg/kg q7dX4, day 9): 24. g
Mean body weight (G2 1 mg/kg q7dX4, day 10): 24. g
Mean body weight (G2 1 mg/kg q7dX4, day 11): 24. g
Mean body weight (G2 1 mg/kg q7dX4, day 12): 24. g
Mean body weight (G2 1 mg/kg q7dX4, day 13): 25. g
Mean body weight (G2 1 mg/kg q7dX4, day 14): 24. g
Mean body weight (G2 1 mg/kg q7dX4, day 15): 24. g
Mean body weight (G2 1 mg/kg q7dX4, day 16): 25. g
Mean body weight (G2 1 mg/kg q7dX4, day 17): 25. g
Mean body weight (G2 1 mg/kg q7dX4, day 18): 25. g
Mean body weight (G2 1 mg/kg q7dX4, day 19): 25. g
Mean body weight (G2 1 mg/kg q7dX4, day 20): 25. g
Mean body weight (G2 1 mg/kg q7dX4, day 21): 25. g
Mean body weight (G2 1 mg/kg q7dX4, day 22): 25. g
Mean body weight (G2 1 mg/kg q7dX4, day 23): 25. g
Mean body weight (G2 1 mg/kg q7dX4, day 24): 25. g
Mean body weight (G2 1 mg/kg q7dX4, day 25): 25. g
Mean body weight (G2 1 mg/kg q7dX4, day 26): 26. g
Mean body weight (G2 1 mg/kg q7dX4, day 27): 25. g
Mean body weight (G2 1 mg/kg q7dX4, day 28): 25. g
Mean body weight (G2 1 mg/kg q7dX4, day 29): 25. g
Mean body weight (G3 0.3 mg/kg q7dX4, day 1): 2 g
Mean body weight (G3 0.3 mg/kg q7dX4, day 2): 2 g
Mean body weight (G3 0.3 mg/kg q7dX4, day 3): 2 g
Mean body weight (G3 0.3 mg/kg q7dX4, day 4): 2 g
Mean body weight (G3 0.3 mg/kg q7dX4, day 5): 2 g
Mean body weight (G3 0.3 mg/kg q7dX4, day 6): 2 g
Mean body weight (G3 0.3 mg/kg q7dX4, day 7): 2 g
Mean body weight (G3 0.3 mg/kg q7dX4, day 8): 2 g
Mean body weight (G3 0.3 mg/kg q7dX4, day 9): 2 g
Mean body weight (G3 0.3 mg/kg q7dX4, day 10): 2 g
Mean body weight (G3 0.3 mg/kg q7dX4, day 11): 2 g
Mean body weight (G3 0.3 mg/kg q7dX4, day 12): 2 g
Mean body weight (G3 0.3 mg/kg q7dX4, day 13): 2 g
Mean body weight (G3 0.3 mg/kg q7dX4, day 14): 2 g
Mean body weight (G3 0.3 mg/kg q7dX4, day 15): 2 g
Mean body weight (G3 0.3 mg/kg q7dX4, day 16): 2 g
Mean body weight (G3 0.3 mg/kg q7dX4, day 17): 2 g
Mean body weight (G3 0.3 mg/kg q7dX4, day 18): 2 g
Mean body weight (G3 0.3 mg/kg q7dX4, day 19): 2 g
Mean body weight (G3 0.3 mg/kg q7dX4, day 20): 2 g
Mean body weight (G3 0.3 mg/kg q7dX4, day 21): 2 g
Mean body weight (G3 0.3 mg/kg q7dX4, day 22): 2 g
Mean body weight (G3 0.3 mg/kg q7dX4, day 23): 2 g
Mean body weight (G3 0.3 mg/kg q7dX4, day 24): 2 g
Mean body weight (G3 0.3 mg/kg q7dX4, day 25): 2 g
Mean body weight (G3 0.3 mg/kg q7dX4, day 26): 2 g
Mean body weight (G3 0.3 mg/kg q7dX4, day 27): 2 g
Mean body weight (G3 0.3 mg/kg q7dX4, day 28): 2 g
Mean body weight (G3 0.3 mg/kg q7dX4, day 29): 2 g
body weight / growth pattern (group G1 3 mg/kg q7d×4): decreased body weight after first treatment then they showed normal growth pattern
Percentage Body weight change (group G1 3 mg/kg q7d×4, day 2): −3.2%
body weight / growth pattern (group G2 1 mg/kg q7d×4): normal growth pattern throughout the experimental period
body weight gain compared to other treatment groups (group G2 1 mg/kg q7d×4): maximum body weight gain
body weight / growth pattern (group G3 0.3 mg/kg q7d×4): decreased body weight after first treatment then they showed normal growth pattern
body weight gain as compared to group G1 (group G3 0.3 mg/kg q7d×4): marginal body weight gain
Percentage Body weight change (group G3 0.3 mg/kg q7d×4, day 3): −3.8%
